Consider 6 compounds from patent US11365227B2, “Peptide and pharmaceutical compositions of same for use as an antimicrobial and in cancer treatment” (UNIVERSITAT DE VALÈNCIA, priority 2017, dated 2022).

For orientation: EC50 means the concentration at which the effect is half-maximal.

Where no end group is shown, it is not given here.

The subject of data set [1] is MDA-MB-231 triple-negative breast cancer cells. The data set is described as follows: MTS cell viability, combined treatments of PaSK with chemotherapeutic agents.
The subject of data set [2] is S. aureus. The data set is described as follows: Antimicrobial activity by flow cytometry (SYBR Green / propidium iodide). Conditions: 25 μg/mL, 8 h at 37° C., 2 replicates. Format: cell-based, Staphylococcus aureus subsp. aureus CECT 4013. The procedure: The strain used was CECT 4013 of S. aureus subsp. aureus, publicly accessible deposited in the Spanish Type Culture Collection (CECT).
Starting from cells of S. aureus cultured overnight in a liquid medium LB (peptone 1%, yeast extract 0.5% and NaCl 1%) at 37° C. with stirring, aliquots were obtained in a new liquid medium and allowed to grow until reaching an optical density at 600 nm (OD600) of 0.5, optimum for detection in the flow cytometer. Aliquots were prepared with a concentration of 5×10^6 cfu/100 μL of S. aureus to which were added 10, 15, 20 and 25 μg/mL of PaSK, 25 μg/mL of TcDef3-pep and H2O (negative control), solvent used to dilute the peptides. The mixtures were incubated at 37° C. for 8 h and marked with the fluorochromes SYBR Green (Invitrogen) (25 μL of a SYBR Green 25× solution in H2O) that stains all the cells and propidium iodide (Sigma) (10 μL of propidium iodide 1 mg/mL) that stains dead cells. Finally, the cell death caused by the peptides was analysed by flow cytometry with the equipment BD Facs Verse (Becton Dickinson), from the cell culture and flow cytometry section of the Central Services for Research Support of the University of Valencia. The experiments were performed in duplicate.
The flow cytometer forces cells to pass one by one through a needle, creating a thin line of liquid and detecting how the laser beam (argon emission laser at 488 nm, in the equipment used) interacts with the cells, depending on how the incident light is deviated and the fluorescence emitted by the excited fluorochromes. The results are presented as graphs obtained with the analysis program BD Facs suite v1.0.5.3841 (Becton Dickinson). […] Then, a second graph is obtained with the parameters SSC and FITC (fluorescence parameter indicating the cells containing SYBR Green), to differentiate the cells from the other particles that may be present in the sample. Lastly, a third graph is obtained with the fluorescence parameters FITC and PerCPCy5.5 (indicating the cells stained with propidium iodide) to differentiate the cells that have been stained only by SYBR Green from those stained with propidium iodide, which will be those that have died.
The antimicrobial activity of the peptide PaSK was determined by flow cytometry. […] Therefore, the use of these two fluorochromes provides a method for determining viable cells, quantifying the loss of cell viability from the increase in propidium iodide inside the dead cells.
After incubating the cells of strain CECT 4013 of S. aureus with 25 μg/mL of the peptides TcDef3-pep and PaSK, the percentage of dead cells was determined. […] FIGS. 1A-1D show the graphs corresponding to the fluorescence obtained in the windows of the flow cytometer.
In general terms: Flow cytometry measures light scatter and fluorescence of single cells or particles in a stream.

In data set [3] the test system is S. aureus. The experiment in a line: Transmission electron microscopy of S. aureus cells treated with peptides. Format: cell-based, Staphylococcus aureus subsp. aureus CECT 4013. Conditions: 25 μg/mL, 1 h. As to the method:
The samples were prepared in the same way as for scanning electron microscopy, except for the series of graded dehydration with ethanol, in which only the 90° grade was reached. Then the samples were included in resin in 4 steps: ethanol 96°—resin LR-White 2:1 (20 h), ethanol 100°—resin 2:1 (20 h), ethanol 100°—resin 1:2 (20 h) and 100% resin (24 h at 60° C.). After the samples were included in the resin the block was prepared for ultrathin cuts of 60 nm in the equipment Leica UC6 Ultracut Microtome.
Transmission electron microscopy provides high-resolution images which were used to view the ultrastructural damage caused by the peptides inside the bacteria. The cells of S. aureus CECT 4013 were treated with the peptides hBD-3, TcDef3-pep and PaSK at a concentration of 25 μg/mL, for 1 h, and analysed using transmission electron microscopy (FIG. 6). In cells without treatment, an intact cytoplasm membrane (3) and peptidoglycane wall (2) were observed, typical of a Gram+ bacteria as S. aureus, as well as a division septum (1) without malformations, while in treated cells different types of alterations were observed. […] Small size circular structures (9) are observed. These structures show a different electrodensity from cells and lack a cytoplasm membrane and peptidoglycane wall. The biofilm formed by the cells treated with peptides was also observed in the images obtained by transmission electron microscopy (FIG. 7) and it was not observed in the cells treated with human defensin hBD-3 (FIG. 6).

The subject of data set [4] is S. aureus. The experiment in a line: Scanning electron microscopy of S. aureus cells treated with peptides. Format: cell-based, Staphylococcus aureus subsp. aureus CECT 4013. The settings on record: 25 μg/mL, 1 h. As to the method: The cells were prepared in the same way as for the flow cytometry technique and the same aliquots and treatments were performed. The samples were incubated at 37° C. for 1 h. The bacteria were fixed with Karnosky (2.5% paraformaldehyde and 0.5 glutaraldehyde) for 2 h at 4° C. After washing (centrifuging and eliminating the supernatant) they were fixed with 2% osmium tetraoxide for another 2 h, washed again and filtered with a 0.2 μm filter. The cells were then dehydrated in graded ethanol series (30°, 50°, 70°, 90°, 100°) for 10 min in each gradation. To carry out the critical point drying, the ethanol was replaced with liquid CO2, the temperature was increased to accelerate evaporation and the pressure was lowered slowly to conserve the exact shape of the bacteria. Finally, shading with gold palladium was performed for 2 min observing the results in the equipment FEG-SEM HITACHI S4800 at 10 Kv.
Scanning electron microscopy provides high-resolution images used to view the damage caused by the peptides to the bacterial membrane. The cells of S. aureus CECT 4013 were treated with the peptides hBD-3, TcDef3-pep and PaSK at a concentration of 25 μg/mL, for 1 h, and analysed using scanning electron microscopy (FIG. 4). In cells without treatment the circular and uniform form typical of S. aureus was observed, with the intact membrane, while in treated cells various types of morphological alterations can be seen. […] With this treatment small circular structures are observed, smaller than the cells of S. aureus.

The test system of data set [5] is S. aureus. The settings on record: 10 μg/mL; Contreras et al., 2015; cited from earlier work.
The mark [6] stands for this setting: chemotherapeutic agent alone, 72 h, 3 replicates.

In the case of `CC(=O)O[C@H]1C(=O)[C@@]2(C)[C@H]([C@H](OC(=O)c3ccccc3)[C@]3(O)C[C@H](OC(=O)[C@H](O)[C@@H](NC(=O)c4ccccc4)c4ccccc4)C(C)=C1C3(C)C)[C@]1(OC(C)=O)CO[C@@H]1C[C@@H]2O` [paclitaxel], in data set [1] (Homo sapiens, MDA-MB-231, 72 h), the concentration for a half-maximal effect (EC50) is 0.008 ± 0.005 µM.

“hBD-3: human defensin hBD-3 (PeptaNova), positive control (GIINTLQKYYCRVRGGRCAVLSCLPKEEQIGKCSTRGRKCCRRKK; ends and bridges not checked; cysteine pairing not given here; UniProt P81534 23-67, looked up)”: the “percentage of dead cells (cytotoxicity)” value in the data set with S. aureus [2] is given as “around 70%”. Moreover, in the data set on S. aureus [3], the “ultrastructural damage, transmission electron microscopy” value is “malformations (4) and lysis of the membrane”. In the data set with S. aureus [4], the “biofilm formation, scanning electron microscopy” value is recorded as “did not form a biofilm”; the “morphological alterations, scanning electron microscopy” value was “structural damage and lysis of the membrane”.

In the case of “TcDef3-pep: 29 amino acid peptide fragment of Tribolium castaneum defensin 3, SEQ ID NO: 2, disclosed in Contreras et al., 2015 (VNHAACAAHCLLKRKRGGYCNKRRICVCR)”, the “percentage of dead cells (cytotoxicity)” value with S. aureus [2] is approximately 55%. Besides, the “ultrastructural damage, transmission electron microscopy” value in the data set on S. aureus [3] is “malformations and bulges in the bacterial membrane”. For the same compound, in the data set with S. aureus [4], the “biofilm formation, scanning electron microscopy” value is given as “biofilm produced” and the “morphological alterations, scanning electron microscopy” value is listed as “bulges are observed in the bacterial membrane”. Also, the mortality percentage with S. aureus [5] is recorded as 9.2%.

Consider `N.N.[Cl][Pt][Cl]` [cisplatin], for which the EC50 in data set [1] (setting [6]) stood at 168 ± 53.9 µM.

With `O=c1[nH]cc(F)c(=O)[nH]1` [5-fluorouracyl], the concentration for a half-maximal effect (EC50) in data set [1] (setting [6]) is 25.3 ± 4.33 µM.

In the case of `COc1cccc2c1C(=O)c1c(O)c3c(c(O)c1C2=O)C[C@@](O)(C(=O)CO)C[C@@H]3O[C@H]1C[C@H](N)[C@H](O)[C@H](C)O1` [doxorubicin], the half-maximal effective concentration (EC50) in data set [1] (Homo sapiens, MDA-MB-231, 72 h) turned out to be 0.407 ± 0.033 µM.
